Each structure is given as a SMILES string. pKi: −log10 of the molar value.

Experiment [1] deals with T1, Neuronal acetylcholine receptor; alpha4/beta2 (Rattus norvegicus, UniProt P09483+P12390). As to the kind of experiment: Inhibition of [3H]nicotine binding to Nicotinic acetylcholine receptor alpha4-beta2 of rat cortical membranes. Format: cell membranes, Membrane.
For experiment [2], the target named is Neuronal acetylcholine receptor subunit alpha-7 (Rattus norvegicus, UniProt Q05941). As to the kind of experiment: Inhibition of [3H]-BTX binding to Nicotinic acetylcholine receptor alpha-7 of rat hippocampal membranes. The experiment is classed as cell membranes, Membrane.
Chain of Neuronal acetylcholine receptor subunit alpha-7 (Q05941 whole entry): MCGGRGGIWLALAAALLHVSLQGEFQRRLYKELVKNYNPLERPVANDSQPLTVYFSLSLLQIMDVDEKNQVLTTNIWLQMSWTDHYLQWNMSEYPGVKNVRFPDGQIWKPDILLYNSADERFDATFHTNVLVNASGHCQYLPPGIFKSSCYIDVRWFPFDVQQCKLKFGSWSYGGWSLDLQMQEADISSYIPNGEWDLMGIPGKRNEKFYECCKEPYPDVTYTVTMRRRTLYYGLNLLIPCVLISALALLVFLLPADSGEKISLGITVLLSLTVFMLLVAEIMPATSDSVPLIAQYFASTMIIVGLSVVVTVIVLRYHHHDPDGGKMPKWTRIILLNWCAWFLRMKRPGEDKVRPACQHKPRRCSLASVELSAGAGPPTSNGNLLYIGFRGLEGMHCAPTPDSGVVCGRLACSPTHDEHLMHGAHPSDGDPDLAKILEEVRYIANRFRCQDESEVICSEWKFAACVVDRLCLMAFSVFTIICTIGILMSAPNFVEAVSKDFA
The species named for experiment [3] is Mus musculus. As to the kind of experiment: Effective concentration in antinociception activity in mouse tail flick test. Format: functional, organism-based. (In hot-plate and tail-flick tests a longer latency is read as antinociception.)
Experiment [4] concerns the target T1, Neuronal acetylcholine receptor; alpha4/beta2. As to the kind of experiment: Inhibition of [3H]cytisine binding to Nicotinic acetylcholine receptor alpha4-beta2 of rat cortical membranes. The experiment is classed as cell membranes, Membrane.
For experiment [5] the target is unchanged. As to the kind of experiment: Inhibition of [3H]epibatidine binding to Nicotinic acetylcholine receptor alpha4-beta2 of rat cortical membranes. Format: cell membranes, Membrane.

T1 sequence (P09483 whole entry): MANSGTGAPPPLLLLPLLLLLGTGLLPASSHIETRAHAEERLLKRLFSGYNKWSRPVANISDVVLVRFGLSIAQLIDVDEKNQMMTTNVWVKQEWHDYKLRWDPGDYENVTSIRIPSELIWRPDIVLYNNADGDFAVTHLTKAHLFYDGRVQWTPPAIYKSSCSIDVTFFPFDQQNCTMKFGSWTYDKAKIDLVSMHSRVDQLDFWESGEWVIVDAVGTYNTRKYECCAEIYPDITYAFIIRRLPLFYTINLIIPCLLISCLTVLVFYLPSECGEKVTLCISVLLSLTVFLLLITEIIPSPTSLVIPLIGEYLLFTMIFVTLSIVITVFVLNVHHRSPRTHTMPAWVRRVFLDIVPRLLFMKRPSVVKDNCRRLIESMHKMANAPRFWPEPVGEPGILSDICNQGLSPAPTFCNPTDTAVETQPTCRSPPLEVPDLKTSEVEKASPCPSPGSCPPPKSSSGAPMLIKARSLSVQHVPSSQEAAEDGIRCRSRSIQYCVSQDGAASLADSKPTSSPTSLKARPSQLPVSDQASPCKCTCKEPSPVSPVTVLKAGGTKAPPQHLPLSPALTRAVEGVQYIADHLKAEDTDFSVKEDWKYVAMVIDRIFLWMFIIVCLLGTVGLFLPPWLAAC
T1 sequence (P12390 whole entry): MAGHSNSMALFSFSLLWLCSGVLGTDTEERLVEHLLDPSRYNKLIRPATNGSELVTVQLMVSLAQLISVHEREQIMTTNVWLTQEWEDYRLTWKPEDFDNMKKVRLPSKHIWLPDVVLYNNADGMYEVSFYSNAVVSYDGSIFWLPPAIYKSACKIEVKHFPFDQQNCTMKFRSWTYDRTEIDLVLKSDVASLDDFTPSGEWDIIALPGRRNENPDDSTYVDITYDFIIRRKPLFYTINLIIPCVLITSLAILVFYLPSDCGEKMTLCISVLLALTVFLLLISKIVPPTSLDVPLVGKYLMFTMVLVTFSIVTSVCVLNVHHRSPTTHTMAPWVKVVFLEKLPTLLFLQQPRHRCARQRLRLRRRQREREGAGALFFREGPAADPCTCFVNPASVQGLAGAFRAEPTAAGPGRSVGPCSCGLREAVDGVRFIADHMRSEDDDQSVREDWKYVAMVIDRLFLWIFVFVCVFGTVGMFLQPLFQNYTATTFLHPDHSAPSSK

In general, pKi refers to −log10 of the Ki, conventionally taken in molar units. For the molecule `Clc1ccc([C@@H]2CC3CC2CN3)cn1` (stereo not given in full), the pKi in experiment [1] is 10.30; in experiment [2] it was 8.20.

In turn, `Clc1ccc(C2CC3CCC2N3)cn1` (stereo not given) [EPIBATIDINE] had an EC50 in experiment [3] of 0.01 mg/kg.

For `Clc1ccc(C2CC3CCCCC2N3)cn1` (single isomer, unassigned; (-)), the pKi in experiment [1] is 9.46.

Turning to `Clc1ccc(C2CC3CNC2C3)cn1` (stereo not given), the negative-log Ki (pKi) in experiment [1] was under 7.42; in experiment [4], 8.18; in experiment [2], 5.80.

For the molecule `Clc1ccc(C2CC3CC2CN3)cn1` (stereo not given), the pKi in experiment [1] was under 7.42; in experiment [4], 7.52; in experiment [2] it was 5.48.

For `Clc1ccc([C@@H]2CC3CNC2C3)cn1` (stereo not given in full), the negative-log Ki (pKi) in experiment [1] was 10.40; in experiment [4], 10.52; in experiment [2], 8.41.

In experiment [5], `Clc1ccc(C2CCC3CCC2N3)cn1` (stereo not given) showed a pKi of 8.80.

`Clc1ccc(C2CC3CCC2NC3)cn1` (stereo not given) gave a pKi in experiment [4] of 9.33. Besides, the EC50 in experiment [3] was 0.04 mg/kg.

Molecule `Clc1ccc(C2CC3CCCCC2N3)cn1` (stereo in doubt; 16 (+)) had a pKi in experiment [1] of 9.89.

On to `Clc1ccc(C2CC3CNC32)cn1` (stereo not given), for which the pKi in experiment [4] is 8.41.

In experiment [1], `Clc1ccc(C2CC3CCCCC2N3)cn1` (stereo in doubt; 17) showed a pKi of 8.90.

`Clc1ccc(C2CC3NCC32)cn1` (stereo not given): in experiment [4], the pKi is 8.30.

Source of the values: ChEMBL document CHEMBL1137057 (Bioorg Med Chem Lett, 2004).
